Data as given in ChEMBL document CHEMBL4673355, “Thiacalixarene based quaternary ammonium salts as promising antibacterial agents” (Bioorg Med Chem, 2021).
Several values for one entry are separate records, joined by “and”; a condition that tells them apart may be missing. Identical values can stand only once.

Tests used:
[1] = test system: Staphylococcus epidermidis; assay: Antibacterial activity against Staphylococcus epidermidis assessed as reduction in bacterial growth incubated for 24 hrs by CLSI broth microdilution method; format: functional
[2] = test system: Staphylococcus aureus; assay: Bactericidal activity against Staphylococcus aureus ATCC 29213 assessed as reduction in bacterial growth incubated for 24 hrs followed by replating on MH broth and further incubated for 24 hrs by CLSI broth microdilution method; format: functional; details: Staphylococcus aureus, ATCC 29213; time 48 hrs; read-out: MBC
[3] = test system: Klebsiella sp.; assay: Antibacterial activity against […] resistant Klebsiella sp. clinical isolate 12 assessed as reduction in bacterial growth incubated for 24 hrs by CLSI broth microdilution method; format: functional
[4] = test system: Bacillus subtilis; assay: Antibacterial activity against Bacillus subtilis 168 assessed as reduction in bacterial growth incubated for 24 hrs by CLSI broth microdilution method; format: functional
[5] = test system: Acinetobacter; assay: Antibacterial activity against […] resistant Acinetobacter spp. clinical isolate 3 assessed as reduction in bacterial growth incubated for 24 hrs by CLSI broth microdilution method; format: functional
[6] = Antibacterial activity against […] resistant Moraxella sp.764 clinical isolate assessed as reduction in bacterial growth incubated for 24 hrs by CLSI broth microdilution method; format: functional; details: Moraxella catarrhalis
[7] = test system: Escherichia coli; assay: Antibacterial activity against Escherichia coli ATCC 25922 assessed as reduction in bacterial growth incubated for 24 hrs by CLSI broth microdilution method; format: functional; details: Escherichia coli, ATCC 25922, 24 h, read-out: MIC
[8] = test system: Acinetobacter; assay: Antibacterial activity against […] resistant Acinetobacter spp. clinical isolate 5 assessed as reduction in bacterial growth incubated for 24 hrs by CLSI broth microdilution method; format: functional
[9] = Selectivity index, ratio of CC50 for human HSF cells to MIC for Klebsiella pneumoniae ATCC 1813; format: toxicity
[10] = Selectivity index, ratio of CC50 for human HSF cells to MIC for Staphylococcus epidermidis; format: toxicity; details: HSF cells
[11] = Selectivity index, ratio of CC50 for human HSF cells to MIC for Staphylococcus aureus ATCC 29213; format: toxicity; details: HSF cells
[12] = test system: Staphylococcus haemolyticus; assay: Antibacterial activity against methicillin- resistant Staphylococcus haemolyticus 837 assessed as reduction in bacterial growth incubated for 24 hrs by CLSI broth microdilution method; format: functional
[13] = test system: Klebsiella pneumoniae; assay: Bactericidal activity against Klebsiella pneumoniae ATCC 1813 assessed as reduction in bacterial growth incubated for 24 hrs followed by replating on MH broth and further incubated for 24 hrs by CLSI broth microdilution method; format: functional
[14] = test system: Pseudomonas aeruginosa; assay: Antibacterial activity against Pseudomonas aeruginosa ATCC 27853 assessed as reduction in bacterial growth incubated for 24 hrs by CLSI broth microdilution method; format: functional
[15] = Selectivity index, ratio of CC50 for human HSF cells to MIC for Escherichia coli ATCC 25922; format: toxicity
[16] = test system: Staphylococcus aureus; assay: Antibacterial activity against methicillin- resistant Staphylococcus aureus 25 clinical isolate assessed as reduction in bacterial growth incubated for 24 hrs by CLSI broth microdilution method; format: functional
[17] = test system: Acinetobacter; assay: Antibacterial activity against […] resistant Acinetobacter spp. clinical isolate 1 assessed as reduction in bacterial growth incubated for 24 hrs by CLSI broth microdilution method; format: functional
[18] = test system: Staphylococcus intermedius; assay: Antibacterial activity against methicillin- resistant Staphylococcus intermedius 1143 clinical isolate assessed as reduction in bacterial growth incubated for 24 hrs by CLSI broth microdilution method; format: functional
[19] = test system: Klebsiella sp.; assay: Antibacterial activity against […] resistant Klebsiella sp. clinical isolate 11 assessed as reduction in bacterial growth incubated for 24 hrs by CLSI broth microdilution method; format: functional
[20] = test system: Staphylococcus aureus; assay: Antibacterial activity against methicillin- resistant Staphylococcus aureus 983 clinical isolate assessed as reduction in bacterial growth incubated for 24 hrs by CLSI broth microdilution method; format: functional
[21] = Selectivity index, ratio of CC50 for human HSF cells to MIC for Pseudomonas aeruginosa ATCC 27853; format: toxicity; details: for selectivity ratio: HSF cells
[22] = test system: Staphylococcus aureus; assay: Antibacterial activity against methicillin- resistant Staphylococcus aureus 2020 clinical isolate assessed as reduction in bacterial growth incubated for 24 hrs by CLSI broth microdilution method; format: functional
[23] = test system: Klebsiella pneumoniae; assay: Antibacterial activity against Klebsiella pneumoniae ATCC 1813 assessed as reduction in bacterial growth incubated for 24 hrs by CLSI broth microdilution method; format: functional; details: Klebsiella pneumoniae, ATCC 1813, 24 h, read-out: MIC
[24] = Selectivity index, ratio of CC50 for human HSF cells to MIC for Bacillus subtilis 168; format: toxicity; details: HSF cells
[25] = test system: Bacillus subtilis; assay: Bactericidal activity against Bacillus subtilis 168 assessed as reduction in bacterial growth incubated for 24 hrs followed by replating on MH broth and further incubated for 24 hrs by CLSI broth microdilution method; format: functional; details: Bacillus subtilis, 168, 24 h
[26] = test system: Pseudomonas aeruginosa; assay: Bactericidal activity against Pseudomonas aeruginosa ATCC 27853 assessed as reduction in bacterial growth incubated for 24 hrs followed by replating on MH broth and further incubated for 24 hrs by CLSI broth microdilution method; format: functional
[27] = test system: Proteus sp.; assay: Antibacterial activity against […] resistant Proteus sp. clinical isolate 17 assessed as reduction in bacterial growth incubated for 24 hrs by CLSI broth microdilution method; format: functional; details: Proteus sp. (in: enterobacteria)
[28] = Antibacterial activity against […] resistant Moraxella sp.765 clinical isolate assessed as reduction in bacterial growth incubated for 24 hrs by CLSI broth microdilution method; format: functional; details: Moraxella catarrhalis
[29] = test system: Escherichia coli; assay: Bactericidal activity against Escherichia coli ATCC 25922 assessed as reduction in bacterial growth incubated for 24 hrs followed by replating on MH broth and further incubated for 24 hrs by CLSI broth microdilution method; format: functional
[30] = test system: Staphylococcus aureus; assay: Antibacterial activity against methicillin- resistant Staphylococcus aureus 967 clinical isolate assessed as reduction in bacterial growth incubated for 24 hrs by CLSI broth microdilution method; format: functional
[31] = test system: Staphylococcus epidermidis; assay: Bactericidal activity against Staphylococcus epidermidis assessed as reduction in bacterial growth incubated for 24 hrs followed by replating on MH broth and further incubated for 24 hrs by CLSI broth microdilution method; format: functional; details: Staphylococcus epidermidis, read-out: MBC
[32] = Antibacterial activity against […] resistant Moraxella sp.829 clinical isolate assessed as reduction in bacterial growth incubated for 24 hrs by CLSI broth microdilution method; format: functional; details: Moraxella catarrhalis
[33] = test system: Staphylococcus aureus; assay: Antibacterial activity against Staphylococcus aureus ATCC 29213 assessed as reduction in bacterial growth incubated for 24 hrs by CLSI broth microdilution method; format: functional; details: Staphylococcus aureus, ATCC 29213, 24 h, read-out: MIC
[34] = test system: Pseudomonas; assay: Antibacterial activity against methicillin- resistant Pseudomonas spp. clinical isolate 6 assessed as reduction in bacterial growth incubated for 24 hrs by CLSI broth microdilution method; format: functional
[35] = Cytotoxicity against human HSF cells assessed as reduction in cell viability incubated for 72 hrs by MTT assay; format: cell-based, HSF (VGS)
[36] = test system: Staphylococcus aureus; assay: Bactericidal activity against Staphylococcus aureus ATCC 29223; format: functional
[37] = test system: Escherichia coli; assay: Bactericidal activity against Escherichia coli ATCC 25922; format: functional
[38] = test system: Escherichia coli; assay: Antibacterial activity against Escherichia coli ATCC 25922 by CLSI broth microdilution method; format: functional
[39] = test system: Pseudomonas aeruginosa; assay: Antibacterial activity against Pseudomonas aeruginosa ATCC 27853 by CLSI broth microdilution method; format: functional
[40] = test system: Enterococcus faecalis; assay: Antibacterial activity against Enterococcus faecalis ATCC 29212 by CLSI broth microdilution method; format: functional; details: Enterococcus faecalis, ATCC 29212; read-out: MIC
[41] = test system: Staphylococcus aureus; assay: Antibacterial activity against Staphylococcus aureus ATCC 29223 by CLSI broth microdilution method; format: functional
[42] = test system: Staphylococcus aureus; assay: Antibacterial activity against Staphylococcus aureus ATCC 29213 by CLSI broth microdilution method; format: functional
[43] = test system: Staphylococcus aureus; assay: Bactericidal activity against Staphylococcus aureus ATCC 29213; format: functional
[44] = test system: Enterococcus faecalis; assay: Bactericidal activity against Enterococcus faecalis ATCC 29212; format: functional
[45] = Staphylococcus epidermidis, read-out: MIC
[46] = Bacillus subtilis, 168, 24 h, read-out: MIC
[47] = Pseudomonas aeruginosa, ATCC 27853, 24 h, read-out: MIC

Row | SMILES | MIC [1, 45] [µg/mL] | MBC [2] [µg/mL] | MIC [3] [µg/mL] | MIC [4, 46] [µg/mL] | MIC [5] [µg/mL] | MIC [6] [µg/mL] | MIC [8] [µg/mL] | MIC [12] [µg/mL] | MBC [13] [µg/mL] | MIC [14, 47] [µg/mL] | MIC [16] [µg/mL] | MIC [17] [µg/mL] | MIC [18] [µg/mL] | MIC [19] [µg/mL] | MIC [20] [µg/mL] | selectivity ratio [21] | MIC [22] [µg/mL] | MBC [25] [µg/mL] | MBC [26] [µg/mL] | MIC [27] [µg/mL] | also measured
1 | CCCCCCCCCCCCCC(=O)NCCC[N+](C)(C)Cc1ccccc1.[Cl-] [MIRAMISTIN] | 4 | 32 | > 64 | 8 | 64 | 64 | > 64 | 64 | 64 | 64 | 0.5 | 64 | 8 | 64 | 4 | 0.15 | 8 | 64 | 64 | > 64 | MIC [7]: 64 µg/mL; selectivity ratio ([9]; HSF cells): 0.15; selectivity ratio [10]: 2.4; selectivity ratio [11]: 0.6; selectivity ratio [15]: 0.15; MIC [23]: 64 µg/mL; selectivity ratio [24]: 1.2; MIC [28]: 64 µg/mL; MBC [29]: 64 µg/mL; MIC [30]: 16 µg/mL; MBC [31]: 32 µg/mL; MIC [32]: 32 µg/mL; MIC [33]: 16 µg/mL; MIC [34]: > 64 µg/mL; CC50 at 72 h [35]: 9.4 µg/mL
2 | CCCCCCCCCC[N+](C)(C)CCCNC(=O)COc1c2cc(C(C)(C)C)cc1Sc1cc(C(C)(C)C)cc(c1OCC(=O)NCCC[N+](C)(C)CCCCCCCCCC)Sc1cc(C(C)(C)C)cc(c1OCC(=O)NCCC[N+](C)(C)CCCCCCCCCC)Sc1cc(C(C)(C)C)cc(c1OCC(=O)NCCC[N+](C)(C)CCCCCCCCCC)S2.[Cl-].[Cl-].[Cl-].[Cl-] | 8 | 8 | > 64 | 4 | > 64 | > 64 | > 64 | 32 | 32 | 64 | 4 | > 64 | 2 | > 64 | 32 | 0.5 | 32 | 32 | > 64 | > 64 | MIC [1]: 4 µg/mL; MIC [4]: 4 µg/mL; Ratio [9]: 1 and 3; MIC ([14]; 24 h): >64 µg/mL; Ratio [21]: < 0.5; MIC [28]: > 64 µg/mL; MBC [29]: 64 µg/mL; MIC [30]: 32 µg/mL; MBC [31]: 16 µg/mL; MIC [32]: > 64 µg/mL; MIC [34]: > 64 µg/mL
3 | N=C(N)NCCc1cc2c(O)c(c1)Cc1cc(CCNC(=N)N)cc(c1O)Cc1cc(CCNC(=N)N)cc(c1O)Cc1cc(CCNC(=N)N)cc(c1O)C2.O=C(O)C(F)(F)F.O=C(O)C(F)(F)F.O=C(O)C(F)(F)F.O=C(O)C(F)(F)F | – | – | – | – | – | – | – | – | – | – | – | – | – | – | – | – | – | – | – | – | MBC [36]: 256 µg/mL; MBC [37]: 256 µg/mL; MIC [38]: 4 µg/mL; MIC [39]: 32 µg/mL; MIC [40]: 32 µg/mL; MIC [41]: 8 µg/mL; MIC [42]: 8 µg/mL; MBC [43]: 256 µg/mL; MBC [44]: > 256 µg/mL
